# According to US10392368B2, “Pyrazolo and triazolo bicyclic compounds as JAK kinase inhibitors” (THERAVANCE BIOPHARMA R&D IP, LLC, priority 2017, dated 2019):
# Where two headings read alike, the source gives them in different places.
# Experiments:
# JAK1 = target: T1, JAK1 (Homo sapiens, UniProt P23458); assay: Biochemical JAK1 kinase assay (LanthaScreen); conditions: for Ki: read-out: JAK 1 (pKi) (converted)
# T1 construct: GST; purchased Life Technologies
# Method in brief: (§1)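 GST-tagged JAK enzyme and GFP-STAT1 peptide preincubated with compound 1 h, then ATP added; 1 h kinase reaction at ambient temperature, pH 7.5 HEPES/MgCl2 buffer, 1% DMSO. Tb-anti-pSTAT1 (pTyr701) TR-FRET, 520/495 nm ratio; IC50 from 4-parameter fit, converted to pKi via Cheng-Prusoff.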
# JAK2 = target: T2, JAK2 (Homo sapiens, UniProt O60674); assay: Biochemical JAK2 kinase assay (LanthaScreen); conditions: for Ki: read-out: JAK 2 (pKi) (converted)
# T2 construct: GST; purchased Life Technologies
# T2 sequence (O60674 whole entry): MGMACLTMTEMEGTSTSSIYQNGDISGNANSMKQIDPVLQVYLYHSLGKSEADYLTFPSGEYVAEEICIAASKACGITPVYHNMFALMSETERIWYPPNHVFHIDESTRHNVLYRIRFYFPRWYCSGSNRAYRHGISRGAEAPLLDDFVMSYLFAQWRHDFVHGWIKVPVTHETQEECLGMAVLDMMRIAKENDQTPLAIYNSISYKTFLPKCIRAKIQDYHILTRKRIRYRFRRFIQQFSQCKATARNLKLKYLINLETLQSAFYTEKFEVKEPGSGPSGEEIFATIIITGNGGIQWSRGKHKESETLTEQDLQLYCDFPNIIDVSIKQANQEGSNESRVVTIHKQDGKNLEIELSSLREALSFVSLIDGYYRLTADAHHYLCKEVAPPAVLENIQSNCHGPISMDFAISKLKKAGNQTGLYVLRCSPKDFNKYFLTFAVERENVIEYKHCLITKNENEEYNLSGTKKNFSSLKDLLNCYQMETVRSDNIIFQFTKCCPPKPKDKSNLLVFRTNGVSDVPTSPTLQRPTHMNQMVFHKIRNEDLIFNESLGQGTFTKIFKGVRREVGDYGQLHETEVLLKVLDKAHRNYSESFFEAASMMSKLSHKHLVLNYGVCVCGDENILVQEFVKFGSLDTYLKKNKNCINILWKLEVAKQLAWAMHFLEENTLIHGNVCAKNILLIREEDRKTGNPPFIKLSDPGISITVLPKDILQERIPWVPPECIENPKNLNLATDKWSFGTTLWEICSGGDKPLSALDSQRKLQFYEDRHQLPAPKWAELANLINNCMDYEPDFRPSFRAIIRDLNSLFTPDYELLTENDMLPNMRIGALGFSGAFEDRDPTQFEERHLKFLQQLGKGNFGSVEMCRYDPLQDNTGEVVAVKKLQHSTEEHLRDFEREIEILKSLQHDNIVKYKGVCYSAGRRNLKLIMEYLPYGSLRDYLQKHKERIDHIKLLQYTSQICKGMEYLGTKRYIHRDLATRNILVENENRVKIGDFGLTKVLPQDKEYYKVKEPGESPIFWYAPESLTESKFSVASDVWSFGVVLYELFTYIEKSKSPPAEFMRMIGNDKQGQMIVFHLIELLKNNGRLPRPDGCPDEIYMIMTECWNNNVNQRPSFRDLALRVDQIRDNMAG
# Method in brief: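 pKi values derive from pIC50 via Cheng-Prusoff, with IC50 from a 4-parameter fit of percent-inhibition TR-FRET data using Tb-anti-pSTAT1 (pTyr701) detection. Compound, GST-JAK2 and GFP-STAT1 substrate were pre-incubated 1 h, then ATP started a 1 h ambient reaction (HEPES pH 7.5, 10 mM MgCl2, 1% DMSO).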
# JAK3 = target: T3, JAK3 (Homo sapiens, UniProt P52333); assay: Biochemical JAK3 kinase assay (LanthaScreen); parameters: GST; purchased Life Technologies; conditions: for Ki: read-out: JAK 3 (pKi) (converted)
# T3 sequence (P52333 1-1124): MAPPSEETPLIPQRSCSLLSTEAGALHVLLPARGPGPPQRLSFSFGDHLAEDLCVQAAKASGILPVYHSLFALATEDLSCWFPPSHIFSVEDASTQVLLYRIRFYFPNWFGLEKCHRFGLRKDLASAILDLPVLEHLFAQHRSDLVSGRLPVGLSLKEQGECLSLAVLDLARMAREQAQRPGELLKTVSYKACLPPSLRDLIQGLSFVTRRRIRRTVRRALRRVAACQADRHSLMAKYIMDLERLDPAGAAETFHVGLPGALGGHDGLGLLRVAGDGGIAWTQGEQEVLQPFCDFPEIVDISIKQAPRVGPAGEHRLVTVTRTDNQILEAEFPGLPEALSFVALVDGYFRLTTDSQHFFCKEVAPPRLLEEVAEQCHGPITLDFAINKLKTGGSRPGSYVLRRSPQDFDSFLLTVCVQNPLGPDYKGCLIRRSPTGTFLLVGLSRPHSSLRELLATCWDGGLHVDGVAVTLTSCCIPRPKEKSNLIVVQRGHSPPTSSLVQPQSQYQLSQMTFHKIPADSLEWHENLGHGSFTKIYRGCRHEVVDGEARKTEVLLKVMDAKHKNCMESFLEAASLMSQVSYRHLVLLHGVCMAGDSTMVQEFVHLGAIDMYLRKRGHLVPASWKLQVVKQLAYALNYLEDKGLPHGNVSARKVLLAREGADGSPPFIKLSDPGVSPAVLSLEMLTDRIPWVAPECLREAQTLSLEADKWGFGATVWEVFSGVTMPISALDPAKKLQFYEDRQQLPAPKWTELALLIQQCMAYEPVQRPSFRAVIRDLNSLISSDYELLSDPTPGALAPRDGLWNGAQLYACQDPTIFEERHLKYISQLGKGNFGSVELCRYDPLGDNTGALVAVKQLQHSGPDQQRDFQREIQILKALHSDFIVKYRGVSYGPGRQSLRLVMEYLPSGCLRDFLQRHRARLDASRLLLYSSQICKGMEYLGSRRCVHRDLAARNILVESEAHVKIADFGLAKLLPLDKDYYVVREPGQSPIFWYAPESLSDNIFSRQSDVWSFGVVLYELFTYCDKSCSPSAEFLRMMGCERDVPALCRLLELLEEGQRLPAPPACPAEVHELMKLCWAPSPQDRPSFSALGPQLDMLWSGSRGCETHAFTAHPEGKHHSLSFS
# Method in brief: as §1
# Tyk2 = target: T4, Tyk2 (Homo sapiens, UniProt P29597); assay: Biochemical Tyk2 kinase assay (LanthaScreen); conditions: for Ki: read-out: Tyk 2 (pKi) (converted)
# T4 construct: GST; purchased Life Technologies
# T4 sequence (P29597 whole entry): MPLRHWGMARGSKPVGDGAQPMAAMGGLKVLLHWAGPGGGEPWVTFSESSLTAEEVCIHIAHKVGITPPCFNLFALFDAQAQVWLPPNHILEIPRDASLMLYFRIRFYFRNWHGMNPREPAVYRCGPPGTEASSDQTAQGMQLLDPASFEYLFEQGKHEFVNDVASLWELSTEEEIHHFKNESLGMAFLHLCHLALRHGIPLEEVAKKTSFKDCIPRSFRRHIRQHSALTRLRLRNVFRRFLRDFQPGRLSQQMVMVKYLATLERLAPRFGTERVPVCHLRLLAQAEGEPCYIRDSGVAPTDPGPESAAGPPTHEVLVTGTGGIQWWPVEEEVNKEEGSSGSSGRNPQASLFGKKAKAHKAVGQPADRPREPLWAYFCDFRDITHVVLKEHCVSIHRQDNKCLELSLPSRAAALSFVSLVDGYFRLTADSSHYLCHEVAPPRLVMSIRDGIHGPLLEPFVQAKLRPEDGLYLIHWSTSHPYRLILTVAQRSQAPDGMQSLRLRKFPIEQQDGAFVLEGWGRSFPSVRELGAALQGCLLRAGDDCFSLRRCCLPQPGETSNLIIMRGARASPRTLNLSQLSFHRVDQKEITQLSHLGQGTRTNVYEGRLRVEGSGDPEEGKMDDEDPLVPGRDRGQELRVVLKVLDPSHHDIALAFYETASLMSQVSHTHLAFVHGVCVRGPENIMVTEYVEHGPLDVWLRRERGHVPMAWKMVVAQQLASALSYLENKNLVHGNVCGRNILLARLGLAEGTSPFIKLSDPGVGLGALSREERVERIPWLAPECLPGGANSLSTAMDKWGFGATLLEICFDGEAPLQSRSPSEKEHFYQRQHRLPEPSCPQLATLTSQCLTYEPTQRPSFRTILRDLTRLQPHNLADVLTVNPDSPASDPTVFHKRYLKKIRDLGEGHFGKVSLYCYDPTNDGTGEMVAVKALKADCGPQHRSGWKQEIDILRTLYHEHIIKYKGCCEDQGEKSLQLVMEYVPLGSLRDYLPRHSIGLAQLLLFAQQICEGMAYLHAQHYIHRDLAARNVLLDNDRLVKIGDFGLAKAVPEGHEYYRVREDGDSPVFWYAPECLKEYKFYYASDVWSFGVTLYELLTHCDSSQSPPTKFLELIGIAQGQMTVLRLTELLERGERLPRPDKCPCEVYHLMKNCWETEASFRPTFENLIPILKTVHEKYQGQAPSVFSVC
# Method in brief: as §1
# [1] = test system: IL-2 stimulated pSTAT5 in Tall-1 T cells; assay: Cellular JAK3 potency assay: inhibition of IL-2 stimulated pSTAT5 in Tall-1 T cells; format: cell-based, human; conditions: for IC50: Homo sapiens, read-out: Tall-1 (pIC50) (converted)
# Method in brief: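 Tall-1 human T cells were preincubated with compound for 1 h at 37° C, then stimulated with IL-2 (300 ng/ml final) for 30 min. STAT5 phosphorylation in lysates was read by AlphaLisa bead emission, and IC50 from inhibition curves is given as pIC50 (mean±SD).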
# [2] = selectivity JAK3 over JAK1, difference of pKi
# [3] = TALL-1, IL-2 stimulated pSTAT5, Tall-1 T cells
# [4] = selectivity: difference of pKi JAK3 and pKi JAK1
# [5] = IL-2 stimulated pSTAT5 in Tall-1 T cells
# [6] = TALL-1, IL-2 stimulated pSTAT5 in Tall-1 T cells
# [7] = IL-2 stimulated pSTAT5, Tall-1 T cells
# T1 sequence (P23458 whole entry): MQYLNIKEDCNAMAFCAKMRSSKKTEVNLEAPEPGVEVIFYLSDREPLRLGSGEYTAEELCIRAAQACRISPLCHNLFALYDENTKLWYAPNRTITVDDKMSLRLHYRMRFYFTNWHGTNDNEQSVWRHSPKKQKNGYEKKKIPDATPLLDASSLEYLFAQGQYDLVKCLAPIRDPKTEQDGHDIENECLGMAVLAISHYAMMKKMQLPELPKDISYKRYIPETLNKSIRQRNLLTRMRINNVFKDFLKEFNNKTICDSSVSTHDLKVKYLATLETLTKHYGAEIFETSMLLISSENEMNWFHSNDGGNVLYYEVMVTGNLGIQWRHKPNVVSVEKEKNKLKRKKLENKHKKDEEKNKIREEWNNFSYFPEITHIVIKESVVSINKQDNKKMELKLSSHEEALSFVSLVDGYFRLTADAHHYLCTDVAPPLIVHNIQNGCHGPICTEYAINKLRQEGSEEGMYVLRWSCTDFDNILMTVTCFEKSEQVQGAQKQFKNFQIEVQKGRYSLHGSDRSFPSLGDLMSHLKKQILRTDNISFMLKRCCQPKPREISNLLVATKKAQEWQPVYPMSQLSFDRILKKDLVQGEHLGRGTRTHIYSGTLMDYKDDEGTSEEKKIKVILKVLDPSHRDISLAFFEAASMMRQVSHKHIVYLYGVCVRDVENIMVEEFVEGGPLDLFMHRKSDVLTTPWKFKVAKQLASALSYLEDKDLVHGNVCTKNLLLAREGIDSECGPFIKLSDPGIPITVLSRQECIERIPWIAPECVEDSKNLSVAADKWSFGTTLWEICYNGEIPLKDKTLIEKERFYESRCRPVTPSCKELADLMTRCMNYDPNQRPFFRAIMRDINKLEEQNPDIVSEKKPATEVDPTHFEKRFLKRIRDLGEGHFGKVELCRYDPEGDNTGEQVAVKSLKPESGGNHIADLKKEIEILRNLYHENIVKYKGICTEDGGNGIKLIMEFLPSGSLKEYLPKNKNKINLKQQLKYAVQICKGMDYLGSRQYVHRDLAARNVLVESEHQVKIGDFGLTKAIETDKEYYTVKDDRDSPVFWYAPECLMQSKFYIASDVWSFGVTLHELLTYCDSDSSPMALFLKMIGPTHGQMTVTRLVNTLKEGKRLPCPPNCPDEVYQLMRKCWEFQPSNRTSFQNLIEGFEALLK
SMILES,Ki (JAK1) [nM],Ki (JAK2) [nM],Ki (JAK3) [nM],JAK3 (pKi)-JAK1 (pKi) (JAK3; [2]),Ki (Tyk2) [nM],"IC50 [1, 3] [nM]",JAK 1 (pKi) (JAK1),JAK 2 (pKi) (JAK2),JAK 3 (pKi) (JAK3),JAK3 (pKi)-JAK1 (pKi) (JAK3; [4]),Tyk 2 (pKi) (Tyk2),"Tall-1 (pIC50) [1, 5]","IC50 [1, 6] [nM]","Tall-1 (pIC50) [1, 7]"
CN(C)C/C=C/C(=O)N1CC(COc2cc(-c3cc(F)c(O)cc3F)cc3[nH]ncc23)C1 [Compound 18-3],10 to 100,10 to 100,< 0.1,B (a value of 2.3 to 3),> 100,< 31.6,,,,,,,,
C=CC(=O)N1CCC(Oc2cc(-c3ccc(O)cc3)cc3[nH]ncc23)CC1 [Compound 6-2],10 to 100,10 to 100,< 0.1,B (a value of 2.3 to 3),> 100,< 31.6,,,,,,,,
CN(C)C/C=C/C(=O)N1CC(Oc2cc(-c3ccc(O)c(F)c3)cc3[nH]ncc23)C1 [Compound 5-5],,,,,,,E (a pKi value of 7 or below (Ki of 100 nM or above)),D (a pKi value between 7 and 8 (Ki between 100 nM and 10 nM)),A (a pKi value≥10 (Ki≤0.1 nM)),A (a value of 3 or above),E (a pKi value of 7 or below (Ki of 100 nM or above)),B (a pIC50 value between 6.7 (included) and 7.5 (IC50 between 200 nM and 32 nM)),,
C=CC(=O)N1CCC(Oc2nc(-c3ccc(O)c(F)c3)cc3[nH]ncc23)CC1 [Compound 6-16],> 100,10 to 100,0.1 to 1,A (a value of 3 or above),> 100,31.6 to 200,,,,,,,,
"C=CC(=O)N1CC[C@H](COc2cc(-c3ccc(O)cc3)cc3[nH]nnc23)C1 [Compound 23, (S)-1-(3-(((6-(4-hydroxyphenyl)-1H-benzo[d][1,2,3]triazol-4-yl)oxy)methyl)pyrrolidin-1-yl)prop-2-en-1-one]",> 100,10 to 100,< 0.1,,> 100,,,,,A (a value of 3 or above),,,31.6 to 200,
C=CC(=O)N1CC(CSc2cc(-c3ccc(O)cc3)nc3[nH]ncc23)C1 [Compound 13-9],,,,A (a value of 3 or above),,,E (a pKi value of 7 or below (Ki of 100 nM or above)),E (a pKi value of 7 or below (Ki of 100 nM or above)),B (a pKi value between 9 and 10 (Ki between 1 nM and 0.1 nM)),,E (a pKi value of 7 or below (Ki of 100 nM or above)),,,B (a pIC50 value between 6.7 (included) and 7.5 (IC50 between 200 nM and 32 nM))
CCC1(COc2cc(-c3ccc(O)c(F)c3)cc3[nH]ncc23)CN(C(=O)/C=C/CN(C)C)C1 [Compound 3-17],,,,,,,E (a pKi value of 7 or below (Ki of 100 nM or above)),D (a pKi value between 7 and 8 (Ki between 100 nM and 10 nM)),A (a pKi value≥10 (Ki≤0.1 nM)),A (a value of 3 or above),E (a pKi value of 7 or below (Ki of 100 nM or above)),A (a pIC50 value≥7.5 (IC50≤32 nM)),,
C=CC(=O)N1CC[C@H](Oc2cc(-c3ccc(O)cc3)nc3[nH]nc(C)c23)C1 [Compound 1-31],> 100,> 100,< 0.1,,> 100,,,,,A (a value of 3 or above),,,31.6 to 200,
C=CC(=O)N1CC(F)(COc2nc(-c3ccc(O)cc3)nc3[nH]ncc23)C1 [Compound 3-45],> 100,> 100,0.1 to 1,,> 100,,,,,A (a value of 3 or above),,,< 31.6,
C=CC(=O)N1CCSC(C(=O)Nc2cc(-c3ccc(O)cc3)cc3[nH]ncc23)C1 (stereo not drawn) [Compound 12-43],,,< 0.1,A (a value of 3 or above),,,E (a pKi value of 7 or below (Ki of 100 nM or above)),D (a pKi value between 7 and 8 (Ki between 100 nM and 10 nM)),,,E (a pKi value of 7 or below (Ki of 100 nM or above)),,,A (a pIC50 value≥7.5 (IC50≤32 nM))
C=CC(=O)N1C2CCC1CC(Oc1cc(-c3ccc(O)c(Cl)c3)cc3[nH]ncc13)C2 (stereo not drawn) [Compound 9-2],,,,A (a value of 3 or above),,,E (a pKi value of 7 or below (Ki of 100 nM or above)),E (a pKi value of 7 or below (Ki of 100 nM or above)),B (a pKi value between 9 and 10 (Ki between 1 nM and 0.1 nM)),,E (a pKi value of 7 or below (Ki of 100 nM or above)),,,A (a pIC50 value≥7.5 (IC50≤32 nM))
C=CC(=O)N1CCC(Nc2cc(-c3ccc(O)cc3)cc3[nH]ncc23)CC1 [Compound 7-4],10 to 100,1 to 10,0.1 to 1,B (a value of 2.3 to 3),> 100,< 31.6,,,,,,,,
CN(C)C/C=C/C(=O)N1CC(C)(Oc2cc(-c3ccc(O)c(F)c3)cc3[nH]ncc23)C1 [Compound 5-19],,,,A (a value of 3 or above),,,E (a pKi value of 7 or below (Ki of 100 nM or above)),E (a pKi value of 7 or below (Ki of 100 nM or above)),B (a pKi value between 9 and 10 (Ki between 1 nM and 0.1 nM)),,E (a pKi value of 7 or below (Ki of 100 nM or above)),,,B (a pIC50 value between 6.7 (included) and 7.5 (IC50 between 200 nM and 32 nM))
C=CC(=O)N1CC(CC)(COc2nc(-c3ccc(O)cc3)cc3[nH]ncc23)C1 [Compound 3-62],,,,,,,E (a pKi value of 7 or below (Ki of 100 nM or above)),D (a pKi value between 7 and 8 (Ki between 100 nM and 10 nM)),B (a pKi value between 9 and 10 (Ki between 1 nM and 0.1 nM)),A (a value of 3 or above),E (a pKi value of 7 or below (Ki of 100 nM or above)),A (a pIC50 value≥7.5 (IC50≤32 nM)),,
CN(C)C/C=C/C(=O)N1CC(F)(C2(Oc3cc(-c4ccc(O)cc4)cc4[nH]ncc34)CC2)C1 [Compound 12-36],10 to 100,> 100,< 0.1,A (a value of 3 or above),> 100,< 31.6,,,,,,,,
CN(C)C/C=C/C(=O)N1CC[C@H](Sc2cc(-c3ccc(O)cc3)cc3[nH]ncc23)C1 [Compound 12-1],> 100,10 to 100,0.1 to 1,A (a value of 3 or above),> 100,31.6 to 200,,,,,,,,
COC(CN(C)C/C=C/C(=O)N1CC(COc2cc(-c3ccc(O)cc3)cc3[nH]ncc23)C1)OC [Compound 3-121],> 100,10 to 100,0.1 to 1,,> 100,,,,,A (a value of 3 or above),,,31.6 to 200,
C=CC(=O)N1CC(C#N)(C(=O)Nc2cc(-c3ccc(O)cc3)cc3[nH]ncc23)C1 [Compound 12-47],> 100,> 100,0.1 to 1,A (a value of 3 or above),> 100,31.6 to 200,,,,,,,,
